Assay results reported in patent US4994448A, “Condensed quinolinium and isoquinolinium derivatives” (Egis Gyogyszergyar, priority 1987, dated 1991).
Read-outs that look alike come from different tables or passages of the source.

What was measured:
[1] = test system: Reserpin ptosis; experiment: Reserpin ptosis antagonism on mice; format: in vivo; conditions: for ED50: Mus musculus, sc, 1 h, compound given 60 min after reserpine 6 mg./kg. s.c.
Experimental: The average ptosis is calculated on the basis of all measurements in each group and expressed as the percentage of the deviation (ptosis) from the control group. Groups consisting of 10 mice are used for each does. The animals are treated with a 6 mg./kg. s.c. dose of reserpine, the test compound is administered after 60 minutes. The control animals receive a vehicle. The animals with closed eye-lids are counted in each group after 60 and 120 minutes. The evaluation is carried out as disclosed in the ptosis test No. 3.

[2] = test system: Tetrabenazine ptosis; experiment: Tetrabenazine antagonism on mice (ptosis); format: in vivo; conditions: for ED50: Mus musculus, oral, 30 min before Tetrabenazine 50 mg./kg. i.p.
Experimental: The test is carried out by the method of Hoffmeister et al. adapted to mice. For each does groups of 10 animals are used. The mice of the test groups are treated orally with the test compound while the controld animals receive the corresponding vehicle p.o. After 30 minutes a 50 mg./kg. i.p. dose of Tetrabenazine is administered. The animals with closed eye-lids are counted after 30, 60, 90 and 120 minutes, respectively, in each group. The average ptosis is calculated on the basis of all measurements in each group and expressed as the percentage of the deviation (ptosis) from the control group.

[3] = test system: writhing (acetic acid); experiment: Analgesic effect, acetic acid writhing test on mice; format: in vivo; conditions: for ED50: Mus musculus, oral, 60 min pre-treatment, 0.75% acetic acid i.p.; for Therapeutical index (writhing test): mouse, in vivo, po
Experimental: Method: acetic acid "writhing effect" on mice
To mice weighing 20-25 g. a 0.75% acetic acid solution is administered intraperitoneally in a volume of 20 ml./kg. According to the method of Neubold the characteristic writhing reactions are counted for each animal between the 5th and 10th minute and the total writhing number obtained for this 5 minutes' period is expressed as the percentage of the control group. The test compound is administered orally, the test is carried out by using a pre-treatment period of 60 minutes and 10 animals are used for each dose.

[4] = Acute toxicity on mice; conditions: mouse, in vivo, po
Experimental: White mice belonging to the CFLP strain (body weight 18-22 g; both male and female) are used, 10 animals for each dose. The test compound is administered orally in a volumen of 20 ml/kg. After treatment the animals are observed for a period of 7 days. The animals are kept in a plastic cage, at room temperature. The animals get tap water and standard mouse fodder ad libitum.

[5] = test system: Hexobarbital narcosis; experiment: Hexobarbital narcosis on mice; format: in vivo; conditions: po; for ED50: Mus musculus, read-out: Hexobarbital narcosis ED50; for Therapeutical index (Hexobarbital narcosis): mouse, in vivo
Experimental: Groups consisting of 6 mice are used for each dose. The animals are treated orally with the test compound (the control group receives a vehicle), whereby sleeping is induced 1 hour later by administering a 40 mg./kg. i.v. dose of Hexobarbital both to the test and control groups.
Animals which have a sleeping time more than 2.5 times longer than that of the control group are considered to show a positive reaction. ED50 values are calculated from the thus-transofrmed data.

[6] = test system: gastrointestinal peristalsis; experiment: Antiperistaltic effect on mice (gastrointestinal peristalsis, carbon suspension, method of Stickney et al.); format: in vivo, mice (white, male and female); conditions: for ED50: Mus musculus, read-out: Antiperistaltic effect ED50; for Therapeutical index (antiperistaltic effect): mouse, in vivo
Experimental: The […] effect is tested according to the method of […] et al. on white male and female mice weighing 20-25 g. […] The groups consist of 10 mice for each dose. The animals of the control group are treated at the same time under identical conditions with a vehicle. Twenty minutes after the administration of the carbon suspension the mice are sacrificed. The total length of the intestines and that of the intestines filled with carbon is measured.

[7] = 7 days observation, Litchfield-Wilcoxon
[8] = 60 min before 10% carbon suspension

Structure (SMILES): CN(C)CCC=C1c2ccccc2CCc2ccccc21 [Amitriptylin, reference compound]
- ED50 [1]: 65 mg/kg
- Therapeutical index TI (Reserpin ptosis antagonism) [1]: 3.5
- ED50 [2]: 12 mg/kg
- Therapeutical index TI (Tetrabenazine ptosis antagonism) [2]: 18.7

Structure (SMILES): CC1=N[n+]2ccc3ccccc3c2NC1(C)O (stereo not shown) [Example 1, 2,3-Dimethyl-2-hydroxy-1,2-dihydro-as-triazino[3,2-a]isoquinolinium ethanesulfonate]
- ED50 [3]: 60 mg/kg
- Therapeutical index (writhing test) [3]: 7.3
- LD50 at 168 h [4]: 440 mg/kg

Structure (SMILES): c1ccc2c(c1)cc[n+]1ncc(N3CCOCC3)nc21 [Example 2, 2-Morpholino-as-triazino[3,2-a]isoquinolinium ethanesulfonate]
- LD50 at 168 h [4, 7]: 450 mg/kg

Structure (SMILES): OCCNc1cn[n+]2ccc3ccccc3c2n1 [Example 3, 2-(2-Hydroxyethylamino)-as-triazino[3,2-a]isoquinolinium ethanesulfonate]
- LD50 at 168 h [4]: 500 mg/kg
- ED50 [2]: 50 mg/kg
- Therapeutical index TI (Tetrabenazine ptosis antagonism) [2]: 10.0

Structure (SMILES): Cc1n[n+]2ccc3ccccc3c2nc1NCCCN(C)C [Example 5, 2-(3-Dimethylaminopropylamino)-3-methyl-as-triazino[3,2-a]isoquinolinium ethanesulfonate]
- LD50 at 168 h [4, 7]: 2000 mg/kg

Structure (SMILES): CN(C)CCCNc1nc2c3ccccc3cc[n+]2nc1-c1ccccc1 [Example 6, 2-(3-Dimethylaminopropylamino)-3-phenyl-as-triazino[3,2-a]isoquinolinium ethanesulfonate]
- ED50 [3]: 120 mg/kg
- Therapeutical index (writhing test) [3]: 7.1
- LD50 at 168 h [4]: 850 mg/kg
- ED50 [5]: 35 mg/kg
- Therapeutical index (Hexobarbital narcosis) [5]: 24.3

Structure (SMILES): c1ccc(CNc2nc3c4ccccc4cc[n+]3nc2-c2ccccc2)cc1 [Example 8, 2-Benzylamino-3-phenyl-as-triazino[3,2-a]isoquinolinium ethanesulfonate]
- ED50 [1]: 31 mg/kg
- Therapeutical index TI (Reserpin ptosis antagonism) [1]: 11.0
- LD50 at 168 h [4]: 340 mg/kg

Structure (SMILES): Cc1n[n+]2ccc3ccccc3c2[nH]c1=O [Example 9, 3-Methyl-2(1H)-oxo-as-triazino[3,2-a]isoquinolinium-5-ium-ethanesulfonate]
- ED50 [3]: 107 mg/kg
- Therapeutical index (writhing test) [3]: 8.4
- LD50 at 168 h [4]: 900 mg/kg
- ED50 [5]: 56 mg/kg
- Therapeutical index (Hexobarbital narcosis) [5]: 16.1

Structure (SMILES): O=c1nc2c3ccccc3ccn2nc1-c1ccccc1 [Example 11, 3-Phenyl-as-triazino[3,2-a]isoquinoline-2(5H)-one]
- ED50 [1]: 33 mg/kg
- Therapeutical index TI (Reserpin ptosis antagonism) [1]: 60.6
- LD50 at 168 h [4]: 2000 mg/kg
- ED50 [6, 8]: ~220 mg/kg
- Therapeutical index (antiperistaltic effect) [6]: 9.1

Structure (SMILES): OC1C=N[n+]2ccc3ccccc3c2N1 (stereo not shown) [Example 16, 2-Hydroxy-1,2-dihydro-as-triazino[3,2-a]isoquinolinium ethanesulfonate]
- LD50 at 168 h [4, 7]: 650 mg/kg

Structure (SMILES): Cc1n[n+]2c3ccccc3ccc2n(C)c1=O [Example 17, 2,4-Dimethyl-3(4H)-oxo-as-triazino[3,2-a]isoquinoline-11-ium ethanesulfonate]
- ED50 [1]: 40 mg/kg
- Therapeutical index TI (Reserpin ptosis antagonism) [1]: 25.0
- LD50 at 168 h [4]: 1000 mg/kg

Structure (SMILES): Cn1c(=O)c(-c2ccccc2)n[n+]2c3ccccc3ccc12 [Example 18, 2-Phenyl-4-methyl-3(4H)-oxo-as-triazino[3,2-a]quinoline-11-ium ethanesulfonate]
- ED50 [1]: 40 mg/kg
- Therapeutical index TI (Reserpin ptosis antagonism) [1]: 50.0
- LD50 at 168 h [4]: 2000 mg/kg

Structure (SMILES): Cc1n[n+]2c(ccc3ccccc32)[nH]c1=O [Example 21, 2-Methyl-3(4H)-oxo-as-triazino[3,2-a]quinoline-11-ium ethanesulfonate]
- LD50 at 168 h [4, 7]: 700 mg/kg

Structure (SMILES): Cc1n[n+]2c(ccc3ccccc32)nc1NCCO [Example 24, 2-Methyl-3(2-hydroxyethylamino)as-triazino[3,2-a]quinolinium ethanesulfonate]
- LD50 at 168 h [4, 7]: 130 mg/kg

Structure (SMILES): OCCNc1nc2ccc3ccccc3[n+]2nc1-c1ccccc1 [Example 25, 3-(2-Hydroxyethylamino)-2-phenyl-as-triazino[3,2-a]quinolinium ethanesulfonate]
- LD50 at 168 h [4, 7]: 500 mg/kg

Structure (SMILES): O=c1cn[n+]2c(ccc3ccccc32)[nH]1 [Example 26, 3(4H)-Oxo-as-triazino[3,2-a]quinoline-11ium ethanesulfonate]
- LD50 at 168 h [4, 7]: 450 mg/kg

Structure (SMILES): O=c1[nH]c2ccc3ccccc3[n+]2nc1-c1ccccc1 [Example 27, 2-Phenyl-3(4H)-oxo-as-triazino[3,2-a]quinoline-11ium ethanesulfonate]
- ED50 [3]: 23.8 mg/kg
- Therapeutical index (writhing test) [3]: 42.0

Structure (SMILES): Cc1n[n+]2ccc3ccccc3c2nc1N1CCOCC1 [Example 34, 2-Morpholino-3-methyl-as-triazino[3,2-a]isoquinolinium ethanesulfonate]
- LD50 at 168 h [4, 7]: 1200 mg/kg

Structure (SMILES): Cc1n[n+]2ccc3ccccc3c2nc1NCCO [Example 36, 2-(2-Hydroxyethylamino)-3-methyl-as-triazino[3,2-a]isoquinolinium ethanesulfonate]
- LD50 at 168 h [4]: 1400 mg/kg
- ED50 [2]: 20 mg/kg
- Therapeutical index TI (Tetrabenazine ptosis antagonism) [2]: 70.0

Structure (SMILES): OCCNc1nc2c3ccccc3cc[n+]2nc1-c1ccccc1 [Example 37, 2-(2-Hydroxyethylamino)-3-phenyl-as-triazino[3,2-a]isoquinolinium ethanesulfonate]
- LD50 at 168 h [4, 7]: 750 mg/kg

Structure (SMILES): Cc1n[n+]2ccc3ccccc3c2nc1N [Example 38, 2-Amino-3-methyl-as-triazino[3,2-a]isoquinolinium ethanesulfonate]
- ED50 [3]: 65 mg/kg
- Therapeutical index (writhing test) [3]: 5.8
- LD50 at 168 h [4]: 380 mg/kg
- ED50 [5]: 17 mg/kg
- Therapeutical index (Hexobarbital narcosis) [5]: 22.4
- ED50 [2]: 9.2 mg/kg
- Therapeutical index TI (Tetrabenazine ptosis antagonism) [2]: 41.3

Structure (SMILES): Nc1nc2c3ccccc3cc[n+]2nc1-c1ccccc1 [Example 39, 2-Amino-3-phenyl-as-triazino[3,2-a]isoquinolinium ethanesulfonate]
- LD50 at 168 h [4, 7]: 500 mg/kg

Structure (SMILES): Cc1n[n+]2ccc3ccccc3c2nc1NCc1ccccc1 [Example 40, 2-Benzylamino-3-methyl-as-triazino[3,2-a]isoquinolinium ethanesulfonate]
- LD50 at 168 h [4]: 90 mg/kg
- ED50 [6, 8]: 6.5 mg/kg
- Therapeutical index (antiperistaltic effect) [6]: 13.85

Structure (SMILES): CCCC(C)(COC(N)=O)COC(N)=O [Meprobamate, reference compound]
- ED50 [5]: 260 mg/kg
- Therapeutical index (Hexobarbital narcosis) [5]: 4.2

Structure (SMILES): COc1ccc(Cc2nccc3cc(OC)c(OC)cc23)cc1OC [Papaverin, reference compound]
- ED50 [6]: > 280 mg/kg
- inhibition (antiperistaltic effect) ([6]; printed beside ED50 above 280 mg./kg.): 36.1%

Structure (SMILES): CC(=O)Nc1ccc(O)cc1 [Paracetamol, reference compound]
- ED50 [3]: 180 mg/kg
